Experimental data published in ChEMBL document CHEMBL1131656, “Diimidazo[1,2-c:4',5'-e]pyrimidines: N6-N1 conformationally restricted adenosines” (Bioorg Med Chem Lett, 1998).

Legend:
Adenosine receptor A2a = Adenosine receptor A2a (Rattus norvegicus, UniProt P30543); assay: Binding affinity against Adenosine A2a receptor from rat striata
[1] = biological target: Adenosine receptors; A1 & A2a (Rattus norvegicus) (UniProt P25099+P30543); assay: Ratio of Ki for A2A and A1 receptors; assay type: protein assay
Adenosine receptor A1 = biological target: T1, Adenosine receptor A1 (Rattus norvegicus, UniProt P25099); assay: Binding affinity for rat brain Adenosine A1 receptor
T1 sequence (P25099 whole entry): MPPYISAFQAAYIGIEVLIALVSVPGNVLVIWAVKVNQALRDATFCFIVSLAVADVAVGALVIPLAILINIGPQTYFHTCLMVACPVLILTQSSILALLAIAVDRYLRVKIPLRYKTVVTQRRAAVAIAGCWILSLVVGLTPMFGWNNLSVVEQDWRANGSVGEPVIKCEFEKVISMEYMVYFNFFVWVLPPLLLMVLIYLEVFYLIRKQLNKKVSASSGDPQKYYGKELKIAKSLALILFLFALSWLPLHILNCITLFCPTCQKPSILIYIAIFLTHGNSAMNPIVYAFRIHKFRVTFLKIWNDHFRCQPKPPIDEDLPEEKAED

[2] = biological target: Adenosine receptor A2a (Rattus norvegicus) (UniProt P30543); assay: Binding affinity against Adenosine A2a receptor from rat striata at a concentration of 10e-3 uM
Chain of Adenosine receptor A2a (Rattus norvegicus) (P30543 whole entry): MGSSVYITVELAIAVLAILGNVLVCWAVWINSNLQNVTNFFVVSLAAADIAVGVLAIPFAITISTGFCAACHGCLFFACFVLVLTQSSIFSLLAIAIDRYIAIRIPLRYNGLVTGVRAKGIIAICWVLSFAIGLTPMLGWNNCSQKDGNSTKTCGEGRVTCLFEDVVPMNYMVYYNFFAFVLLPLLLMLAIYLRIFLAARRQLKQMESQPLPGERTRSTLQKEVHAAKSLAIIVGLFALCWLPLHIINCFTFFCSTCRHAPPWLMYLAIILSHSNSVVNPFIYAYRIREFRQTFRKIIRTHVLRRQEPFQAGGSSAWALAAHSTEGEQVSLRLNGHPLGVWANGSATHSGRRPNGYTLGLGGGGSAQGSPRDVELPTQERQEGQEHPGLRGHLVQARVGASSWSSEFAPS

Chain of Adenosine receptor A2a (P30543 whole entry): as above
Chain of Adenosine receptors; A1 & A2a (Rattus norvegicus) (P30543 whole entry, looked up, one chain of several): as the sequence (P30543 whole entry) above

SMILES	Ki (Adenosine receptor A2a)	Ratio [1]	Ki (Adenosine receptor A1)	inhibition [2]
CCCOC1=Nc2c(cnn2-c2ccccc2)C2=N[C@@H](C)[C@H](c3ccccc3)N12	45 µM	1.4		
OC[C@@H]1OC(n2cnc3c2N=CN2C[C@@H](c4ccccc4)N=C32)[C@@H](O)[C@H]1O (some centres undefined)	17.5 µM	4.6	3.82 µM	
OC[C@@H]1OC(n2cnc3c2N=CN2C[C@@H](Cc4ccccc4)N=C32)[C@@H](O)[C@H]1O (some centres undefined)	13.5 µM	6	2.23 µM	
CCCOC1=Nc2c(cnn2-c2ccccc2)C2=N[C@@H](Cc3ccccc3)CN12	3.3 µM	0.35		
CCCOC1=Nc2c(cnn2-c2ccccc2)C2=N[C@H](Cc3ccccc3)CN12	> 100 µM	> 100		
CCCOC1=Nc2c(cnn2-c2ccccc2)C2=N[C@H](C)[C@@H](c3ccccc3)N12	11 µM	1.5		
CCCOC1=Nc2c(ncn2-c2ccccc2)C2=N[C@H](Cc3ccccc3)CN12	72 µM	22		
C[C@H]1N=C2c3ncn(C4O[C@@H](CO)[C@H](O)[C@@H]4O)c3N=CN2[C@@H]1c1ccccc1 (some centres undefined)	55.5 µM	4.4	12.6 µM	

Second part, the molecule after the results:

Ki (Adenosine receptor A2a)	Ratio [1]	Ki (Adenosine receptor A1)	inhibition [2]	SMILES
	70	11.2 µM	45%	C[C@@H]1N=C2c3ncn(C4O[C@@H](CO)[C@H](O)[C@@H]4O)c3N=CN2[C@H]1c1ccccc1 (some centres undefined)
189 µM	42	4.54 µM		OC[C@@H]1OC(n2cnc3c2N=CN2C[C@H](c4ccccc4)N=C32)[C@@H](O)[C@H]1O (some centres undefined)
57.1 µM	19	2.99 µM		OC[C@@H]1OC(n2cnc3c2N=CN2C[C@H](Cc4ccccc4)N=C32)[C@@H](O)[C@H]1O (some centres undefined)
	0.18			CCCOC1=Nc2c(ncn2-c2ccccc2)C2=N[C@@H](Cc3ccccc3)CN12
